Where “and” joins values, the source holds several entries; their conditions need not be identical. Identical values can stand only once. Results filed as inconclusive are left out.

This assay has as its system SK-MEL-5 DCT mRNA qPCR, delta-delta-Ct, overnight. Briefly: DCT transcript decrease in melanoma cells – cell-based, SK-MEL-5, RT-qPCR, dry powder samples, orthogonal assay for MITF inhibitor project, dose response (AID 651771). (In qPCR the cycle at which signal appears reflects the starting amount.)
On to `Cc1ccc(NC2=CC(=O)c3ccccc3C2=O)cc1`, for which the AC40 is 277 nM.

Regarding `NC1=CC(=O)c2ccccc2C1=O`, the AC40 is 966 nM. `COC1=C(Nc2ccccc2)C(=O)c2ccccc2C1=O`: the AC40 was 838 nM. Then `COC1=C(NS(=O)(=O)c2cccs2)C(=O)c2ccccc2C1=O`, with 9010 nM; and `COC1=C(NS(=O)(=O)c2ccc(Br)cc2)C(=O)c2ccccc2C1=O`, with 8650 nM; and `NC1=C(NS(=O)(=O)c2cccs2)C(=O)c2ccccc2C1=O`, with 2010 nM. Then `O=C1C(Nc2ccc(Br)cc2)=C(N2CCCCC2)C(=O)c2ccccc21`, with 12600 nM; and `NC1=C(NC(=O)c2ccccc2)C(=O)c2ccccc2C1=O`, with 1730 nM. Then `NC1=C(NS(=O)(=O)c2ccc(Br)cc2)C(=O)c2ccccc2C1=O`, with 12800 nM; and `C=CCNC1=C(Cl)C(=O)c2ccccc2C1=O`, with 1000 nM.

In the case of `O=C(NC1=C(Cl)C(=O)c2ccccc2C1=O)c1ccccc1`, the AC40 was 336 nM. The same measure for `O=C1C(Nc2ccc(Cl)cc2)=C(N2CCCC2)C(=O)c2ccccc21`: 9530 nM; for `O=C1C=C(NS(=O)(=O)c2ccccc2)C(=O)c2ccccc21`: 4060 nM. The same measure for `COc1ccc(NC2=C(N3CCCCC3)C(=O)c3ccccc3C2=O)cc1`: 12800 nM; for `CN1CCN(C2=C(NS(=O)(=O)c3ccc(Br)s3)C(=O)c3ccccc3C2=O)CC1`: 1680 nM; for `NC1=C(NS(=O)(=O)c2ccccc2)C(=O)c2ccccc2C1=O`: 3020 nM. The same measure for `CC(C)N1CCN(C2=C(Nc3ccc(F)cc3)C(=O)c3ccccc3C2=O)CC1`: 2900 nM; for `NS(=O)(=O)c1ccc(NC2=CC(=O)c3ccccc3C2=O)cc1`: 55.5 nM. As for `O=C1C(Nc2ccccc2)=C(c2ccccc2)C(=O)c2ccccc21`, the AC40 was 10400 nM. The same measure for `CCN1CCN(C2=C(NC(=O)c3ccccc3)C(=O)c3ccccc3C2=O)CC1`: 884 nM; for `O=C1C=C(NS(=O)(=O)c2ccc(Br)cc2)C(=O)c2ccccc21`: 7250 nM. Then `O=C1C=C(Nc2ccc([N+](=O)[O-])c(C(F)(F)F)c2)C(=O)c2ccccc21`, with 1050 nM.

In the case of `O=C1C=C(Nc2ccccc2)C(=O)c2ccccc21`, the AC40 is 302 nM and 325 nM.

`CCN1CCN(C2=C(NS(=O)(=O)c3ccc(Br)cc3)C(=O)c3ccccc3C2=O)CC1`: the AC40 is 3380 nM. Then `CCN1CCN(C2=C(Nc3ccc(F)cc3F)C(=O)c3ccccc3C2=O)CC1`, with 4780 nM; and `CC(C)N1CCN(C2=C(Nc3ccc(F)cc3F)C(=O)c3ccccc3C2=O)CC1`, with 3670 nM. On to `O=C1C=C(NS(=O)(=O)c2cccs2)C(=O)c2ccccc21`, for which the AC40 is 4640 nM. Consider `Cc1nc2ccccc2n1/N=C/c1ccc([N+](=O)[O-])s1`, for which the AC40 was 1540 nM.

The values above are taken from PubChem BioAssay AID651771 (Broad Institute, 2012).
